Measurements taken from PubChem BioAssay AID256 (DTP/NCI, 2004).
Where “and” joins values, the source holds several entries; their conditions need not be identical. Equal entries are not always repeated. Inconclusive results and toxic doses are left out. The calls were made as follows: active = survival T/C of 150% or more; inactive = T/C below 125% in these data.

Test system: CD2F1 mice, L1210 leukemia ip, survival T/C
Assay: NCI In Vivo Anticancer Drug Screen. Data for tumor model L1210 Leukemia (intraperitoneal) in CD2F1 (CDF1) mice
Conditions: higher = longer survival
In short: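 Compound-dosed mice with transplantable tumor versus matched vehicle controls; endpoint ratio T/C reported.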

[1] = endpoint: mean survival time, dose: 25.0 mg/kg/injection, schedule: Q04DX002 (ip), vehicle: saline with Tween-80
[2] = endpoint: mean survival time, dose: 50.0 mg/kg/injection, schedule: Q04DX002 (ip), vehicle: saline with Tween-80
[3] = endpoint: mean survival time, dose: 100.0 mg/kg/injection, schedule: Q01DX009 (ip), vehicle: saline
[4] = endpoint: mean survival time, dose: 100.0 mg/kg/injection, schedule: Q04DX003 (ip), vehicle: saline with Tween-80
[5] = endpoint: mean survival time, dose: 200.0 mg/kg/injection, schedule: Q04DX003 (ip), vehicle: saline with Tween-80
[6] = endpoint: mean survival time, dose: 400.0 mg/kg/injection, schedule: Q04DX003 (ip), vehicle: saline with Tween-80
[7] = endpoint: median survival time, dose: 50.0 mg/kg/injection, schedule: Q01DX009 (ip), vehicle: saline with Tween-80
[8] = endpoint: median survival time, dose: 100.0 mg/kg/injection, schedule: Q01DX009 (ip), vehicle: saline with Tween-80
[9] = endpoint: median survival time, dose: 200.0 mg/kg/injection, schedule: Q01DX009 (ip), vehicle: saline with Tween-80
[10] = endpoint: median survival time, dose: 400.0 mg/kg/injection, schedule: Q01DX009 (ip), vehicle: saline with Tween-80
[11] = endpoint: mean survival time, dose: 100.0 mg/kg/injection, schedule: Q01DX009 (ip), vehicle: saline with Tween-80
[12] = endpoint: mean survival time, dose: 200.0 mg/kg/injection, schedule: Q01DX009 (ip), vehicle: saline with Tween-80
[13] = endpoint: mean survival time, dose: 400.0 mg/kg/injection, schedule: Q01DX009 (ip), vehicle: saline with Tween-80
[14] = endpoint: mean survival time, dose: 5.0 mg/kg/injection, schedule: Q01DX009 (ip), vehicle: saline with Tween-80
[15] = endpoint: mean survival time, dose: 10.0 mg/kg/injection, schedule: Q01DX009 (ip), vehicle: saline with Tween-80
[16] = endpoint: mean survival time, dose: 20.0 mg/kg/injection, schedule: Q01DX009 (ip), vehicle: saline with Tween-80
[17] = endpoint: mean survival time, dose: 25.0 mg/kg/injection, schedule: Q01DX009 (ip), vehicle: saline with Tween-80
[18] = endpoint: mean survival time, dose: 50.0 mg/kg/injection, schedule: Q01DX009 (ip), vehicle: saline with Tween-80
[19] = endpoint: mean survival time, dose: 100.0 mg/kg/injection, schedule: Q04DX002 (ip), vehicle: saline with Tween-80

Measured: T/C

N#CC(c1c[nH]c2ccccc12)N1CCOCC1 (configuration not stated)
inactive: [1] 105 % of control | [2] 100 % of control

CCCC1C(=O)N=C(N)NC1=O (configuration not stated)
inactive: endpoint: mean survival time, dose: 100.0 mg/kg/injection, schedule: Q01DX001 (ip), vehicle: Klucel (hydroxypropylcellulose) (HPC) 97 % of control | endpoint: mean survival time, dose: 200.0 mg/kg/injection, schedule: Q01DX001 (ip), vehicle: Klucel (hydroxypropylcellulose) (HPC) 104 % of control | endpoint: mean survival time, dose: 400.0 mg/kg/injection, schedule: Q01DX001 (ip), vehicle: Klucel (hydroxypropylcellulose) (HPC) 101 % of control

CN(C(=O)C(=O)c1ccccc1NC(=O)c1ccc(Cl)cc1)c1ccccc1
inactive: endpoint: mean survival time, dose: 25.0 mg/kg/injection, schedule: Q04DX003 (ip), vehicle: Klucel (hydroxypropylcellulose) (HPC) 102 % of control | endpoint: mean survival time, dose: 50.0 mg/kg/injection, schedule: Q04DX003 (ip), vehicle: Klucel (hydroxypropylcellulose) (HPC) 106 % of control | endpoint: mean survival time, dose: 100.0 mg/kg/injection, schedule: Q04DX003 (ip), vehicle: Klucel (hydroxypropylcellulose) (HPC) 104 % of control

C=CC(C)n1c(=O)c2c(ncn2C)n(C)c1=O (configuration not stated)
inactive: endpoint: mean survival time, dose: 0.78 mg/kg/injection, schedule: Q04DX003 (ip), vehicle: saline with Tween-80 102 % of control | endpoint: mean survival time, dose: 1.56 mg/kg/injection, schedule: Q04DX003 (ip), vehicle: saline with Tween-80 102 % of control | endpoint: mean survival time, dose: 3.12 mg/kg/injection, schedule: Q04DX003 (ip), vehicle: saline with Tween-80 105 % of control

CCOC(=O)C(F)(F)F
inactive: [3] 95 % of control | endpoint: mean survival time, dose: 200.0 mg/kg/injection, schedule: Q01DX009 (ip), vehicle: saline 103 % of control | endpoint: mean survival time, dose: 400.0 mg/kg/injection, schedule: Q01DX009 (ip), vehicle: saline 95 % of control

CCC(N)Cc1ccc2c(c1)OCO2 (configuration not stated)
inactive: endpoint: mean survival time, dose: 25.0 mg/kg/injection, schedule: Q01DX009 (ip), vehicle: saline 98 % of control | endpoint: mean survival time, dose: 50.0 mg/kg/injection, schedule: Q01DX009 (ip), vehicle: saline 93 % of control | [3] 96 % of control | [4] 95 % of control

O=c1cc(C(Br)(Br)Br)[nH]c2ccccc12
inactive: [4] 99 % of control | [5] 97 % of control | [6] 99 % of control

COc1cccc(C2NC(=O)c3c(n[nH]c3N)S2)c1O (configuration not stated)
inactive: endpoint: median survival time, dose: 12.5 mg/kg/injection, schedule: Q01DX009 (ip), vehicle: saline with Tween-80 101 % of control | endpoint: median survival time, dose: 25.0 mg/kg/injection, schedule: Q01DX009 (ip), vehicle: saline with Tween-80 101 % of control | [7] 102 % of control | [8] 98 % of control | [9] 97 % of control | [10] 93 % of control

CC(/C=N\O)=N\O
inactive: endpoint: mean survival time, dose: 100.0 mg/kg/injection, schedule: Q01DX001 (ip), vehicle: saline with Tween-80 97 % of control | endpoint: mean survival time, dose: 200.0 mg/kg/injection, schedule: Q01DX001 (ip), vehicle: saline with Tween-80 103 % of control

C/C(=N\O)C1(C)CC=CCC1CO (configuration not stated)
inactive: endpoint: mean survival time, dose: 100.0 mg/kg/injection, schedule: Q01DX009 (ip), vehicle: saline sonified 102 % of control | endpoint: mean survival time, dose: 200.0 mg/kg/injection, schedule: Q01DX009 (ip), vehicle: saline sonified 96 % of control | endpoint: mean survival time, dose: 400.0 mg/kg/injection, schedule: Q01DX009 (ip), vehicle: saline sonified 100 % of control

COc1cc2cc3c(c(O)c2c(O)c1/C=C/C(C)C)C(=O)CC(C)(OC(C)=O)C3 (configuration not stated)
inactive: endpoint: median survival time, dose: 1.25 mg/kg/injection, schedule: Q01DX009 (ip), vehicle: Klucel (hydroxypropylcellulose) (HPC) 105 % of control | endpoint: median survival time, dose: 2.5 mg/kg/injection, schedule: Q01DX009 (ip), vehicle: Klucel (hydroxypropylcellulose) (HPC) 102 % of control | endpoint: median survival time, dose: 5.0 mg/kg/injection, schedule: Q01DX009 (ip), vehicle: Klucel (hydroxypropylcellulose) (HPC) 113 % of control | endpoint: median survival time, dose: 10.0 mg/kg/injection, schedule: Q01DX009 (ip), vehicle: Klucel (hydroxypropylcellulose) (HPC) 116 % of control and 121 % of control | endpoint: median survival time, dose: 20.0 mg/kg/injection, schedule: Q01DX009 (ip), vehicle: Klucel (hydroxypropylcellulose) (HPC) 98 % of control and 105 % of control

COc1cc2ccc3c4cc(OC)c(OC)cc4c[n+](C)c3c2cc1O
inactive: endpoint: mean survival time, dose: 75.0 mg/kg/injection, schedule: Q04DX003 (ip), vehicle: Klucel (hydroxypropylcellulose) (HPC) 113 % of control | endpoint: mean survival time, dose: 150.0 mg/kg/injection, schedule: Q04DX003 (ip), vehicle: Klucel (hydroxypropylcellulose) (HPC) 113 % of control | endpoint: mean survival time, dose: 300.0 mg/kg/injection, schedule: Q04DX003 (ip), vehicle: Klucel (hydroxypropylcellulose) (HPC) 119 % of control

CCO/C=C1\SC(=S)N(c2ccccc2C)C1=O
inactive: [11] 106 % of control and 111 % of control | [4] 103 % of control | [12] 103 % of control and 106 % of control | [5] 108 % of control | [13] 88 % of control | [6] 113 % of control

CCCCCCCCCC[n+]1cccc(C(N)=O)c1
inactive: [14] 97 % of control | [15] 97 % of control | [16] 100 % of control

Cc1cc(C)c(C(=O)CN2CCOCC2)c(C)c1
inactive: [4] 98 % of control | [5] 101 % of control | [6] 95 % of control

O=C1c2ccccc2C(=O)c2c1ccc(O)c2O
inactive: [11] 97 % of control | [4] 102 % of control | [12] 97 % of control | [5] 100 % of control | [13] 90 % of control | [6] 100 % of control

COc1cc2ccc(CC(=S)N3CCOCC3)cc2cc1OC
inactive: [11] 98 % of control | [4] 104 % of control | [12] 93 % of control | [5] 95 % of control | [13] 96 % of control

O=C(Nc1ccc(F)cc1)c1cccc(C(=O)Nc2ccc(F)cc2)c1
inactive: [17] 95 % of control | [18] 94 % of control | [11] 94 % of control

CCOC(=O)CN(C=O)C(C)c1ccccc1 (configuration not stated)
inactive: [4] 98 % of control | [5] 93 % of control | [6] 92 % of control

Cn1c(=O)c2c(ncn2-c2ccncc2)n(C)c1=O
inactive: endpoint: mean survival time, dose: 12.5 mg/kg/injection, schedule: Q01DX005 (ip), vehicle: saline with Tween-80 93 % of control | endpoint: mean survival time, dose: 25.0 mg/kg/injection, schedule: Q01DX005 (ip), vehicle: saline with Tween-80 98 % of control | endpoint: mean survival time, dose: 50.0 mg/kg/injection, schedule: Q01DX005 (ip), vehicle: saline with Tween-80 96 % of control | endpoint: mean survival time, dose: 100.0 mg/kg/injection, schedule: Q01DX005 (ip), vehicle: saline with Tween-80 104 % of control

CCCCCC(C)(C)N=[P+]([O-])NC(C)(C)CCCCC (configuration not stated)
inactive: [1] 95 % of control | [2] 102 % of control | [19] 95 % of control and 98 % of control

CSc1nc(N)c2c(ncn2C2OC(CO)C(O)C2O)n1 (configuration not stated)
inactive: endpoint: mean survival time, dose: 100.0 mg/kg/injection, schedule: Q01DX001 (ip), vehicle: saline 105 % of control | endpoint: mean survival time, dose: 200.0 mg/kg/injection, schedule: Q01DX001 (ip), vehicle: saline 100 % of control | endpoint: mean survival time, dose: 400.0 mg/kg/injection, schedule: Q01DX001 (ip), vehicle: saline 97 % of control

Cc1nccc2c1[nH]c1cc(N)ccc12.[Cl][Sn][Cl]
inactive: [14] 115 % of control | [15] 103 % of control | [16] 102 % of control

COC1OC(COS(C)(=O)=O)C(OS(C)(=O)=O)C(OS(C)(=O)=O)C1OS(C)(=O)=O (configuration not stated)
inactive: [11] 95 % of control | [12] 101 % of control | [13] 94 % of control

CCCCCCCCCCCCCCNC(=O)Nc1ccc(Cl)c(Cl)c1
inactive: endpoint: mean survival time, dose: 100.0 mg/kg/injection, schedule: Q04DX003 (ip), vehicle: other 89 % of control | endpoint: mean survival time, dose: 200.0 mg/kg/injection, schedule: Q04DX003 (ip), vehicle: other 86 % of control

COc1cc(OC)c(NC(=O)NCc2ccco2)cc1Cl
inactive: endpoint: mean survival time, dose: 12.5 mg/kg/injection, schedule: Q01DX009 (ip), vehicle: saline with Tween-80 103 % of control | [17] 95 % of control | [18] 88 % of control and 98 % of control | [12] 92 % of control

CCOC(=O)C(C#N)C(=N)C#N (configuration not stated)
inactive: [19] 93 % of control | endpoint: mean survival time, dose: 200.0 mg/kg/injection, schedule: Q04DX002 (ip), vehicle: saline with Tween-80 89 % of control | endpoint: mean survival time, dose: 400.0 mg/kg/injection, schedule: Q04DX002 (ip), vehicle: saline with Tween-80 110 % of control

COc1cccc(/C(C)=N\NC(=O)c2ccccc2)c1
inactive: [17] 98 % of control | [18] 95 % of control | [11] 88 % of control | [4] 96 % of control

CC1C(c2ccccc2)OC(N2CCOCC2)C(C)(C)CN1C (configuration not stated)
inactive: [7] 100 % of control | [8] 102 % of control | [9] 102 % of control | [10] 97 % of control
